{"source": "ChEMBL document CHEMBL1154277", "about": "“Discovery of N-substituted pyridinones as potent and selective inhibitors of p38 kinase” (Bioorg Med Chem Lett, 2009)", "key": {"[1]": {"molecular_target": "Ephrin type-A receptor 4 (Homo sapiens) (UniProt P54764)", "experiment": "Inhibition of EPHA4 at 10 uM"}, "[2]": {"molecular_target": "Fibroblast growth factor receptor 1 (Homo sapiens) (UniProt P11362)", "experiment": "Inhibition of FGFR1 at 10 uM"}, "[3]": {"molecular_target": "Fibroblast growth factor receptor 2 (Homo sapiens) (UniProt P21802)", "sequence (P21802 22-821 limits assumed)": "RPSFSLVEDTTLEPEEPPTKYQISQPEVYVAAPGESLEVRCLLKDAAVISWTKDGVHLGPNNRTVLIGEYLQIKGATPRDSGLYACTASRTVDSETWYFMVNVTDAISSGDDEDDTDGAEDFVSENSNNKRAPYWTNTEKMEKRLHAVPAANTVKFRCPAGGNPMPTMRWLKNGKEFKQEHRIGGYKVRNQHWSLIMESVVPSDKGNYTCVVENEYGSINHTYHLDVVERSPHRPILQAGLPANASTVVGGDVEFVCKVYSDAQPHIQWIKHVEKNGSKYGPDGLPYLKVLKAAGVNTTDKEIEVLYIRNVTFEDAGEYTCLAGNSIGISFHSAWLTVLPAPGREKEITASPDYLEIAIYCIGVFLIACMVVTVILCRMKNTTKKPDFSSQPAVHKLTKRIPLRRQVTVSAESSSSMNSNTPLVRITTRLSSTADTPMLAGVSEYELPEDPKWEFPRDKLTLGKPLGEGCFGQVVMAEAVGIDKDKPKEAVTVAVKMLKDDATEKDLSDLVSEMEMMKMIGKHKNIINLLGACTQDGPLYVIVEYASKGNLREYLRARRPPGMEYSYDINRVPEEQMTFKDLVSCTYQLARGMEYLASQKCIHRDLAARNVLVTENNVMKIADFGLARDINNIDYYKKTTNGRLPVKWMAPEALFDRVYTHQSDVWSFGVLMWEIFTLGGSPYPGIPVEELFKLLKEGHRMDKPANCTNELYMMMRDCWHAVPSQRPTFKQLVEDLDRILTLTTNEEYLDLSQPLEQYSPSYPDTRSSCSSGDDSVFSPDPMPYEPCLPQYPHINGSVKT", "experiment": "Inhibition of FGFR2 at 10 uM"}, "[4]": {"molecular_target": "Insulin receptor (Homo sapiens) (UniProt P06213)", "experiment": "Inhibition of INSR at 10 uM"}, "[5]": {"molecular_target": "Tyrosine-protein kinase JAK2 (Homo sapiens) (UniProt O60674)", "experiment": "Inhibition of JAK2 at 10 uM"}, "[6]": {"tested_on": "Tyrosine-protein kinase JAK2 (Homo sapiens), O60674 [V617F]", "experiment": "Inhibition of JAK2 V617F (mutant) at 10 uM"}, "[7]": {"molecular_target": "Tyrosine-protein kinase Lyn (Homo sapiens) (UniProt P07948)", "experiment": "Inhibition of LYN A at 10 uM"}, "[8]": {"molecular_target": "Mitogen-activated protein kinase kinase kinase kinase 2 (Homo sapiens) (UniProt Q12851)", "experiment": "Inhibition of GCK at 10 uM"}, "[9]": {"molecular_target": "Mitogen-activated protein kinase 1 (Homo sapiens) (UniProt P28482)", "experiment": "Inhibition of ERK2 at 10 uM"}, "[10]": {"molecular_target": "Tyrosine-protein kinase HCK (Homo sapiens) (UniProt P08631)", "experiment": "Inhibition of HCK at 10 uM"}, "[11]": {"molecular_target": "Homeodomain-interacting protein kinase 1 (Homo sapiens) (UniProt Q86Z02)", "experiment": "Inhibition of HIPK1 at 10 uM"}, "[12]": {"molecular_target": "Insulin-like growth factor 1 receptor (Homo sapiens) (UniProt P08069)", "experiment": "Inhibition of IGF1R at 10 uM"}, "[13]": {"molecular_target": "Mitogen-activated protein kinase 3 (Homo sapiens) (UniProt P27361)", "sequence (P27361 whole entry)": "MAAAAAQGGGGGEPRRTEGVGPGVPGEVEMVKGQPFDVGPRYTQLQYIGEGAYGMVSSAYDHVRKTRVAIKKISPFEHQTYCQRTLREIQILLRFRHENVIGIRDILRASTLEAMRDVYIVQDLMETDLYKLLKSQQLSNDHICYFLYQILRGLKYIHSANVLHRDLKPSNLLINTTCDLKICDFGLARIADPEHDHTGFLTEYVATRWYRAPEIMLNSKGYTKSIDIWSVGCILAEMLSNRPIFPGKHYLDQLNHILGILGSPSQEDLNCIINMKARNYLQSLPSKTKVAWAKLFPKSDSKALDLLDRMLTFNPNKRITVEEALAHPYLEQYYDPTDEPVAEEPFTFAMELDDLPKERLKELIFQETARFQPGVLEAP", "experiment": "Inhibition of ERK1 at 10 uM"}, "[14]": {"molecular_target": "MAP/microtubule affinity-regulating kinase 3 (Homo sapiens) (UniProt P27448)", "experiment": "Inhibition of MARK3 at 10 uM"}, "[15]": {"molecular_target": "MAP/microtubule affinity-regulating kinase 4 (Homo sapiens) (UniProt Q96L34)", "experiment": "Inhibition of MARK4 at 10 uM"}, "[16]": {"molecular_target": "Maternal embryonic leucine zipper kinase (Homo sapiens) (UniProt Q14680)", "experiment": "Inhibition of MELK at 10 uM"}, "[17]": {"molecular_target": "Hepatocyte growth factor receptor (Homo sapiens) (UniProt P08581)", "experiment": "Inhibition of cMet at 10 uM"}, "[18]": {"molecular_target": "Serine/threonine-protein kinase Nek1 (Homo sapiens) (UniProt Q96PY6)", "experiment": "Inhibition of NEK1 at 10 uM"}, "[19]": {"molecular_target": "Serine/threonine-protein kinase Nek9 (Homo sapiens) (UniProt Q8TD19)", "experiment": "Inhibition of NEK9 at 10 uM"}, "[20]": {"molecular_target": "Serine/threonine-protein kinase PAK 6 (Homo sapiens) (UniProt Q9NQU5)", "experiment": "Inhibition of PAK6 at 10 uM"}, "[21]": {"molecular_target": "PAS domain-containing serine/threonine-protein kinase (Homo sapiens) (UniProt Q96RG2)", "experiment": "Inhibition of PASK at 10 uM"}, "[22]": {"tested_on": "Platelet-derived growth factor receptor alpha (Homo sapiens), P16234 [D842V]", "experiment": "Inhibition of PDGFRalpha D842V (mutant) at 10 uM"}, "[23]": {"tested_on": "Platelet-derived growth factor receptor alpha (Homo sapiens), P16234 [T674I]", "experiment": "Inhibition of PDGFRalpha T674I (mutant) at 10 uM"}, "[24]": {"molecular_target": "Serine/threonine-protein kinase PLK1 (Homo sapiens) (UniProt P53350)", "experiment": "Inhibition of PLK1 at 10 uM"}, "[25]": {"molecular_target": "Serine/threonine-protein kinase PLK3 (Homo sapiens) (UniProt Q9H4B4)", "experiment": "Inhibition of PLK3 at 10 uM"}, "[26]": {"molecular_target": "Protein kinase C epsilon type (Homo sapiens) (UniProt Q02156)", "experiment": "Inhibition of PKCepsilon at 10 uM"}, "[27]": {"molecular_target": "cGMP-dependent protein kinase 1 (Homo sapiens) (UniProt Q13976)", "experiment": "Inhibition of PRKG1 at 10 uM"}, "[28]": {"molecular_target": "Rho-associated protein kinase 1 (Homo sapiens) (UniProt Q13464)", "sequence (Q13464 2-1354 limits assumed)": "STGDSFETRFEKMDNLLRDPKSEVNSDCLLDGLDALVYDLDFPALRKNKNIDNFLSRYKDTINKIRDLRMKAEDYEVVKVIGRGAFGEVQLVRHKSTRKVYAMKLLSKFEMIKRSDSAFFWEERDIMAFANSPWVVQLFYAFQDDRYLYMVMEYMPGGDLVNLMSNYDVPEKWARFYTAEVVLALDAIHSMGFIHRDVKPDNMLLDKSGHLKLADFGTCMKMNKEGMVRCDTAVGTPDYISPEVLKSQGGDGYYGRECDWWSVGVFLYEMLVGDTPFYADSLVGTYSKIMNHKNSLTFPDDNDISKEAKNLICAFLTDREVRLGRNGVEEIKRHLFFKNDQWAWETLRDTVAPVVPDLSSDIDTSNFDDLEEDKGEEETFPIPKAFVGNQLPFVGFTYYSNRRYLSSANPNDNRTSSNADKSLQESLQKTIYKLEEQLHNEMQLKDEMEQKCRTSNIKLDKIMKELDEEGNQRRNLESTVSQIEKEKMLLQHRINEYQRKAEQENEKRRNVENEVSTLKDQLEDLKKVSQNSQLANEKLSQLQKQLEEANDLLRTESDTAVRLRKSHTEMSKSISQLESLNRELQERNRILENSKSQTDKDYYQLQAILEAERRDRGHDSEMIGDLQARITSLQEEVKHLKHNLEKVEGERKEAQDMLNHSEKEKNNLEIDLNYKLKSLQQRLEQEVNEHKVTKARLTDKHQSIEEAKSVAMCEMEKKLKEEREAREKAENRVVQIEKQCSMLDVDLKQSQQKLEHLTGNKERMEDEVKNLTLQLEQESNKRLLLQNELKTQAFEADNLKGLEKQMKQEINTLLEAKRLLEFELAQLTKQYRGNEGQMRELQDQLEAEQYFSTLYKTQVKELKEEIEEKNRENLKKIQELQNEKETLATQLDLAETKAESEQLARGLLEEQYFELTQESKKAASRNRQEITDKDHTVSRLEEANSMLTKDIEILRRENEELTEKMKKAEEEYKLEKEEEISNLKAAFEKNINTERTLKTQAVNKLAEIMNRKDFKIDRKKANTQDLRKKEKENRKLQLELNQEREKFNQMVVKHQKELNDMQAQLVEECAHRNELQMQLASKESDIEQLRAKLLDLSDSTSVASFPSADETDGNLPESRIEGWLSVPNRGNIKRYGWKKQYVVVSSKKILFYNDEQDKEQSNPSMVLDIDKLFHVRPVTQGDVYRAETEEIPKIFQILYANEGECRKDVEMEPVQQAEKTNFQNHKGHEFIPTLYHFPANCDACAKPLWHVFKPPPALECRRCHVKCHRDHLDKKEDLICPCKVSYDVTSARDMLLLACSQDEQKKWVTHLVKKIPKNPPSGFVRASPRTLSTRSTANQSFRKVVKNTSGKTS", "experiment": "Inhibition of ROCK1 at 10 uM"}, "[29]": {"molecular_target": "Proto-oncogene tyrosine-protein kinase ROS (Homo sapiens) (UniProt P08922)", "sequence (P08922 whole entry)": "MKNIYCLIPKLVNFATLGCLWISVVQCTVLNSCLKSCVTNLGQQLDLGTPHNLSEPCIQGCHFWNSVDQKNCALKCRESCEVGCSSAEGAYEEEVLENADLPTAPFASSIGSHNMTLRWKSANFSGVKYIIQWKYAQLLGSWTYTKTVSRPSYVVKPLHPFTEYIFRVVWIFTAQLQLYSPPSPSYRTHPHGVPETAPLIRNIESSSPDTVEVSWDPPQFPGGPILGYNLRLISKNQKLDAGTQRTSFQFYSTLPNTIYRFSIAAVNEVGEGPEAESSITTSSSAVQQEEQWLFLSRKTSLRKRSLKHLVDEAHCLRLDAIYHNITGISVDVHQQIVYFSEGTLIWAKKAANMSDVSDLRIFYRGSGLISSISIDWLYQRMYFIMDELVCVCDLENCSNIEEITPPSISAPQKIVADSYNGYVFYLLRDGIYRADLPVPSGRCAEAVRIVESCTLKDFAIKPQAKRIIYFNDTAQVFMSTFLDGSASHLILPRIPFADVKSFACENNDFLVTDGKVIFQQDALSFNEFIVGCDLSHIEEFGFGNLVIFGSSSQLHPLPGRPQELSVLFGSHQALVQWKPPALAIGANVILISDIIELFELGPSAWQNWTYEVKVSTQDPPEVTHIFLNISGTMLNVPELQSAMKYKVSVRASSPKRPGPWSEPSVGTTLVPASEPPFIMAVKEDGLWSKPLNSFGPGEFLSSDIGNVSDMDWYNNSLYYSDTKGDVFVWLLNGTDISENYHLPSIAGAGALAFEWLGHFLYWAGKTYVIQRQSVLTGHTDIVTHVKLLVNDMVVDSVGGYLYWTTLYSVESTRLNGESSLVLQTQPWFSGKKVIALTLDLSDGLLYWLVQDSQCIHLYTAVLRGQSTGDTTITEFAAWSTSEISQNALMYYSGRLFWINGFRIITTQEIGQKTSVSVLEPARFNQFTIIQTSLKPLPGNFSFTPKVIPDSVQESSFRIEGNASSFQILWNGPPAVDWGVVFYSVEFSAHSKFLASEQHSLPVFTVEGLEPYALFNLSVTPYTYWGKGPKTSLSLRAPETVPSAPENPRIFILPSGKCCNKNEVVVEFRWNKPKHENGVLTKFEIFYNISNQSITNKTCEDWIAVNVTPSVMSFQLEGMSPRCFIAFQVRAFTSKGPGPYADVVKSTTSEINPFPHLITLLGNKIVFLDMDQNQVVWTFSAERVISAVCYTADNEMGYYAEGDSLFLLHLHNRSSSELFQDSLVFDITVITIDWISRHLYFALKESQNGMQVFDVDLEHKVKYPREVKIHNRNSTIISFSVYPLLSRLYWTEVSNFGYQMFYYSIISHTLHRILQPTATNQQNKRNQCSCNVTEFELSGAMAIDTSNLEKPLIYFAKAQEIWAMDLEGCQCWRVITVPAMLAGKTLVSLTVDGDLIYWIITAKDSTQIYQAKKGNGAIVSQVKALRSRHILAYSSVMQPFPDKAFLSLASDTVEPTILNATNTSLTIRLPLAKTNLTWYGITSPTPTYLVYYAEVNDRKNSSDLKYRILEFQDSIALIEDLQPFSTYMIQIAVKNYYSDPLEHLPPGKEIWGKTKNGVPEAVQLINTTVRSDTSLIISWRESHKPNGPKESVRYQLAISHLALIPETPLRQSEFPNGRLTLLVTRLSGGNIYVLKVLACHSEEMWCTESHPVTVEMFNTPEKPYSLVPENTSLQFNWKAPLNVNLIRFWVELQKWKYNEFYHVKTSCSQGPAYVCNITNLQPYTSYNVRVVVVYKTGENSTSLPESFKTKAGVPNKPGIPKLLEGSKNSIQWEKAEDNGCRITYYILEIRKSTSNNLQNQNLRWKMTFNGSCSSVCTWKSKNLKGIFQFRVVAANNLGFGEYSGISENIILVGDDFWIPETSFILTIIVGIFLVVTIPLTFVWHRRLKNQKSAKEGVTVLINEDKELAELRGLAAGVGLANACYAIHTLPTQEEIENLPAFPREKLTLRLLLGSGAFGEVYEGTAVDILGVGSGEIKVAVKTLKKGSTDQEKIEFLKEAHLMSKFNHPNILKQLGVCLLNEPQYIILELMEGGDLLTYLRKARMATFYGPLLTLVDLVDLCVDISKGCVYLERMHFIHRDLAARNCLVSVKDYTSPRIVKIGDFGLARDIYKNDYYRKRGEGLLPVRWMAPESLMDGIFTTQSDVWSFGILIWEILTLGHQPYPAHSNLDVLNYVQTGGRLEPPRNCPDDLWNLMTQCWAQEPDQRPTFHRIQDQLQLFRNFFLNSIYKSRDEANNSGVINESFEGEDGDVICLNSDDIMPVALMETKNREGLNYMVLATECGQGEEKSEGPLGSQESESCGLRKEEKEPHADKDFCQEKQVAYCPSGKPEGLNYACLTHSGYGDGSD", "experiment": "Inhibition of ROS1 at 10 uM"}, "[30]": {"molecular_target": "Ribosomal protein S6 kinase alpha-1 (Homo sapiens) (UniProt Q15418)", "experiment": "Inhibition of RSK1 at 10 uM"}, "[31]": {"molecular_target": "Ribosomal protein S6 kinase alpha-6 (Homo sapiens) (UniProt Q9UK32)", "experiment": "Inhibition of RSK4 at 10 uM"}, "[32]": {"molecular_target": "Serine/threonine-protein kinase Sgk3 (Homo sapiens) (UniProt Q96BR1)", "experiment": "Inhibition of SGK3 at 10 uM"}, "[33]": {"molecular_target": "Serine/threonine-protein kinase 24 (Homo sapiens) (UniProt Q9Y6E0)", "experiment": "Inhibition of MST3 at 10 uM"}, "[34]": {"molecular_target": "Serine/threonine-protein kinase TAO1 (Homo sapiens) (UniProt Q7L7X3)", "experiment": "Inhibition of TAO1 at 10 uM"}, "[35]": {"molecular_target": "Serine/threonine-protein kinase TBK1 (Homo sapiens) (UniProt Q9UHD2)", "experiment": "Inhibition of TBK1 at 10 uM"}, "[36]": {"experiment": "Metabolic stability in rat liver microsomes assessed as compound remaining at 2 uM after 45 mins by LC/MS analysis", "assay_type": "ADME, Microsome", "settings": "read-out: Stability"}, "[37]": {"molecular_target": "CDK9/cyclin T1 (Homo sapiens) (UniProt O60563+P50750)", "experiment": "Inhibition of CDK9/cyclin T1 at 10 uM", "assay_type": "protein-complex assay"}, "[38]": {"molecular_target": "Tyrosine-protein kinase ABL2 (Homo sapiens) (UniProt P42684)", "experiment": "Inhibition of ABL2 at 10 uM"}, "[39]": {"molecular_target": "ALK tyrosine kinase receptor (Homo sapiens) (UniProt Q9UM73)", "experiment": "Inhibition of ALK at 10 uM"}, "[40]": {"molecular_target": "Serine/threonine-protein kinase Chk2 (Homo sapiens) (UniProt O96017)", "experiment": "Inhibition of CHK2 at 10 uM"}, "[41]": {"molecular_target": "Macrophage colony-stimulating factor 1 receptor (Homo sapiens) (UniProt P07333)", "experiment": "Inhibition of CSF1R at 10 uM"}, "[42]": {"molecular_target": "Casein kinase I isoform alpha (Homo sapiens) (UniProt P48729)", "experiment": "Inhibition of CSNK1A1 at 10 uM"}, "[43]": {"molecular_target": "Casein kinase I isoform epsilon (Homo sapiens) (UniProt P49674)", "experiment": "Inhibition of CSNK1E at 10 uM"}, "[44]": {"molecular_target": "Casein kinase I isoform gamma-1 (Homo sapiens) (UniProt Q9HCP0)", "experiment": "Inhibition of CSNK1G1 at 10 uM"}, "[45]": {"molecular_target": "Casein kinase I isoform gamma-3 (Homo sapiens) (UniProt Q9Y6M4)", "experiment": "Inhibition of CK1gamma3 at 10 uM"}, "[46]": {"molecular_target": "Dual specificity tyrosine-phosphorylation-regulated kinase 3 (Homo sapiens) (UniProt O43781)", "experiment": "Inhibition of DYRK3 at 10 uM"}, "[47]": {"tested_on": "Epidermal growth factor receptor (Homo sapiens), P00533 [T790M]", "experiment": "Inhibition of EGFR T790M (mutant) at 10 uM", "assay_type": "protein assay"}}}
{"compound": "Cc1cc(OCc2ccc(F)cc2F)c(Br)c(=O)n1Cc1ccc(CN(C)C)cc1", "values": [{"measurement": "inhibition", "setting": "[1]", "value": "< 50", "unit": "%"}, {"measurement": "inhibition", "setting": "[2]", "value": "< 50", "unit": "%"}, {"measurement": "inhibition", "setting": "[3]", "value": "< 50", "unit": "%"}, {"measurement": "inhibition", "setting": "[4]", "value": "< 50", "unit": "%"}, {"measurement": "inhibition", "setting": "[5]", "value": "< 50", "unit": "%"}, {"measurement": "inhibition", "setting": "[6]", "value": "< 50", "unit": "%"}, {"measurement": "inhibition", "setting": "[7]", "value": "< 50", "unit": "%"}, {"measurement": "inhibition", "setting": "[8]", "value": "< 50", "unit": "%"}, {"measurement": "inhibition", "setting": "[9]", "value": "< 50", "unit": "%"}, {"measurement": "inhibition", "setting": "[10]", "value": "< 50", "unit": "%"}, {"measurement": "inhibition", "setting": "[11]", "value": "< 50", "unit": "%"}, {"measurement": "inhibition", "setting": "[12]", "value": "< 50", "unit": "%"}, {"measurement": "inhibition", "setting": "[13]", "value": "< 50", "unit": "%"}, {"measurement": "inhibition", "setting": "[14]", "value": "< 50", "unit": "%"}, {"measurement": "inhibition", "setting": "[15]", "value": "< 50", "unit": "%"}, {"measurement": "inhibition", "setting": "[16]", "value": "< 50", "unit": "%"}, {"measurement": "inhibition", "setting": "[17]", "value": "< 50", "unit": "%"}, {"measurement": "inhibition", "setting": "[18]", "value": "< 50", "unit": "%"}, {"measurement": "inhibition", "setting": "[19]", "value": "< 50", "unit": "%"}, {"measurement": "inhibition", "setting": "[20]", "value": "< 50", "unit": "%"}, {"measurement": "inhibition", "setting": "[21]", "value": "< 50", "unit": "%"}, {"measurement": "inhibition", "setting": "[22]", "value": "< 50", "unit": "%"}, {"measurement": "inhibition", "setting": "[23]", "value": "< 50", "unit": "%"}, {"measurement": "inhibition", "setting": "[24]", "value": "< 50", "unit": "%"}, {"measurement": "inhibition", "setting": "[25]", "value": "< 50", "unit": "%"}, {"measurement": "inhibition", "setting": "[26]", "value": "< 50", "unit": "%"}, {"measurement": "inhibition", "setting": "[27]", "value": "< 50", "unit": "%"}, {"measurement": "inhibition", "setting": "[28]", "value": "< 50", "unit": "%"}, {"measurement": "inhibition", "setting": "[29]", "value": "< 50", "unit": "%"}, {"measurement": "inhibition", "setting": "[30]", "value": "< 50", "unit": "%"}, {"measurement": "inhibition", "setting": "[31]", "value": "< 50", "unit": "%"}, {"measurement": "inhibition", "setting": "[32]", "value": "< 50", "unit": "%"}, {"measurement": "inhibition", "setting": "[33]", "value": "< 50", "unit": "%"}, {"measurement": "inhibition", "setting": "[34]", "value": "< 50", "unit": "%"}, {"measurement": "inhibition", "setting": "[35]", "value": "< 50", "unit": "%"}, {"measurement": "remaining at 0.75 h, 2 µM", "setting": "[36]", "value": 53, "unit": "%"}, {"measurement": "inhibition", "setting": "[37]", "value": "< 50", "unit": "%"}, {"measurement": "inhibition", "setting": "[38]", "value": "< 50", "unit": "%"}, {"measurement": "inhibition", "setting": "[39]", "value": "< 50", "unit": "%"}, {"measurement": "inhibition", "setting": "[40]", "value": "< 50", "unit": "%"}, {"measurement": "inhibition", "setting": "[41]", "value": "< 50", "unit": "%"}, {"measurement": "inhibition", "setting": "[42]", "value": "< 50", "unit": "%"}, {"measurement": "inhibition", "setting": "[43]", "value": "< 50", "unit": "%"}, {"measurement": "inhibition", "setting": "[44]", "value": "< 50", "unit": "%"}, {"measurement": "inhibition", "setting": "[45]", "value": "< 50", "unit": "%"}, {"measurement": "inhibition", "setting": "[46]", "value": "< 50", "unit": "%"}, {"measurement": "inhibition", "setting": "[47]", "value": "< 50", "unit": "%"}]}
